The test system of experiment [1] is ketamine-induced working memory deficits. Briefly: Ketamine-disrupted radial arm maze (RAM). The format is in vivo, rat. Particulars: ketamine 10 mg/kg s.c. An excerpt: Two cohorts of adult male Long-Evans rats (N=30 each) were trained in a spatial working memory task on an eight-arm RAM, (Pathfinder Maze System, Lafayette Instrument Co., Lafayette, IN), using a procedure adapted from [Ward et al. (1990)] and described in detail in [Strick et al. (2011)]. Briefly, rats were food-restricted to provide motivation to perform the RAM task. The task requires that the animals enter each arm to retrieve a reinforcement food pellets, using spatial cues in the room to remember which arms of the maze they have previously entered. Rats were individually placed on the maze and allowed to navigate until all eight arms were entered and the pellets were consumed or until 30 choices were made, or until 5 min had elapsed. Entry into an arm previously entered was counted as an error. […] Training continued until all animals had reached the training criterion, defined as two or fewer errors on two consecutive days. […] Performance on the maze was evaluated 30 min later by an observer that was blinded to treatments.
The R 3.0.1 statistical software was used to compare the error rate data. The effects of treatment and the interaction on the error rate were assessed using a one-way mixed model ANOVA using generalized least squares method from lme4 library. […]

Experiment [2] shares this test system. Briefly: Spatial delayed response (SDR) task in the nonhuman primate. Format: in vivo, rhesus monkeys. Particulars: ketamine 0.7-1.7 mg/kg i.m.; baseline 70.63 ± 1.75%. The source says: This study was designed to test the hypothesis that PF-6142 would provide significant protection versus the ketamine-induced working memory deficits in nonhuman primates.
Rhesus monkeys were trained to stability on a variable SDR task in a sound-attenuated Wisconsin General Testing Apparatus ([Roberts et al., 2010]). Briefly, subjects observe while the investigator baiting one of two to seven wells with a highly preferred food reward and then covers all the wells with identical square plaques. An opaque screen is then lowered for one of five variable delays, which are pseudorandomized across trials within a session. Thus, delays are defined as 0–4 N, where “N” is a value that is animal dependent and ranges from 1 to 10 s depending upon the difficulty level of the task at which an animal reaches the criterion of stable performance. At the end of the delay period, the opaque screen is raised, and the animal must select the well that had been baited to obtain a reward. Each test session consists of 20 trials wherein both the baited well and delay length are pseudorandomized across trials. Before study initiation, all subjects were required to reach stability over a period of 10 consecutive test sessions, where stability was defined as an average of 65–75% correct. Stability was attained by varying the number of wells and the delay value for each animal. Subjects were originally trained on a two-well board with an N value of 1. […] Once stability was attained for a given number of wells and N value, that combination was kept constant throughout the course of the study ([Roberts et al., 2010]). The range of stable performance for the 10 subjects was two to five wells and an N value of 1–7 s (median, four-well testing board, N = 5 s). Data were transformed using logarithmic function [log(x+5)] to improve normality and analyzed using ANOVA.
Subjects received pretreatment with vehicle (sterile saline solution) or PF-6142 (0.0015, 0.015, 0.15 mg/kg, s.c.) 4 h before cognitive testing. They then received an intramuscular injection of either vehicle (sterile saline) or ketamine (0.7–1.7 mg/kg; Fort Dodge Co.) 0.25 h before cognitive testing. […] Thus, for the present study, one monkey received 0.7 mg/kg, seven monkeys received 1.0 mg/kg, and two monkeys received 1.7 mg/kg of ketamine. The vehicle/PF-6142 and vehicle/ketamine treatments were assigned using a randomized Latin square design with a total of eight conditions. Except for the vehicle/vehicle condition, there was a minimum 2-week washout period between all acute challenges during which time animals were required to “restabilize” to baseline performance levels, which was defined as at least three consecutive testing sessions wherein cognitive performance ranged between 65% and 75% correct.

Structures can show the parent of a compound that is named as a salt.

For the compound `CNC1(c2ccccc2Cl)CCCCC1=O` (centres unmarked) [ketamine, ketamine hydrochloride, reference compound], in experiment [1], the “error rate (errors/choices) in RAM” value is “robust increase in error rate”. The “percent correct on the SDR task” value in experiment [2] is given as 28.75 ± 2.45%.

Values taken from PMC7358525, “Characterization of PF-6142, a Novel, Non-Catecholamine Dopamine Receptor D1 Agonist, in Murine and Nonhuman Primate Models of Dopaminergic Activation” (Frontiers in Pharmacology, 2020).
